# In patent publication US20230414599A1, “NICOTINAMIDE, NICOTINAMIDE PRECURSORS AND NICOTINAMIDE METABOLITES AND COMPOSITIONS THEREOF FOR REDUCING THE TIME TO RESOLUTION OF SYMPTOMS IN PATIENTS WITH COVID-19 AND OTHER VIRAL INFECTIONS” (CONARIS RESEARCH INSTITUTE AG, priority 2020, published 2023):
# Where two headings read alike, the source gives them in different places.
# Test system: COVID-19
# Details: 500 mg IR + 500 mg CICR-NAM daily; for Ability to perform normal activities, complaint scale 0-6, mean change / Ability to perform normal activities, complaint scale 0-6, median change: week 6 - baseline
# [1] = week 4, current or former smokers, n = 75
# [2] = week 4, patients with cough and fever, n = 15
# [3] = week 4, patients with cough, n = 106
# [4] = week 4, patients with fever, n = 21
# [5] = week 4, ≥1 risk factor for severe COVID-19, n = 117
# [6] = BMI ≥30.0 or type 2 diabetes, n = 27
# [7] = current or former smokers, n = 75
# [8] = patients with cough and fever, n = 15
# [9] = ≥1 risk factor for severe COVID-19, n = 117
# [10] = week 6, BMI ≥30.0 or type 2 diabetes, n = 27
# [11] = week 6, current or former smokers, n = 75
# [12] = week 6, patients with cough and fever, n = 15
# [13] = week 6, patients with cough, n = 106
# [14] = week 6, patients with fever, n = 21
# [15] = week 6, ≥1 risk factor for severe COVID-19, n = 117
structure (smiles),measurement,setting,value
"NC(=O)c1cccnc1 [Nicotinamide, nicotinamide]","Ability to perform normal activities worse vs baseline, % of patients",[1],6.67%
same,"Ability to perform normal activities worse vs baseline, patients",[1],5
same,"Ability to perform normal activities, complaint scale 0-6, mean",[1],0.920
same,"Ability to perform normal activities, complaint scale 0-6, median",[1],0.000
same,"Reduced physical performance constant vs baseline, % of patients",[1],38.67%
same,"Reduced physical performance constant vs baseline, patients",[1],29
same,"Reduced physical performance improved vs baseline, % of patients",[1],56.00%
same,"Reduced physical performance improved vs baseline, patients",[1],42
same,"Reduced physical performance worse vs baseline, % of patients",[1],5.33%
same,"Reduced physical performance worse vs baseline, patients",[1],4
same,"Ability to perform normal activities, complaint scale 0-6, mean",[2],1.200
same,"Ability to perform normal activities, complaint scale 0-6, median",[2],0.0
same,"Ability to perform normal activities, complaint scale 0-6, mean",[3],0.736
same,"Ability to perform normal activities, complaint scale 0-6, median",[3],0.0
same,"Ability to perform normal activities, complaint scale 0-6, mean",[4],1.048
same,"Ability to perform normal activities, complaint scale 0-6, median",[4],0.0
same,"Ability to perform normal activities constant vs baseline, % of patients",[5],8.55%
same,"Ability to perform normal activities constant vs baseline, patients",[5],10
same,"Ability to perform normal activities improved vs baseline, % of patients",[5],84.62%
same,"Ability to perform normal activities improved vs baseline, patients",[5],99
same,"Ability to perform normal activities worse vs baseline, % of patients",[5],6.84%
same,"Ability to perform normal activities worse vs baseline, patients",[5],8
same,"Ability to perform normal activities, complaint scale 0-6, mean",[5],0.880
same,"Ability to perform normal activities, complaint scale 0-6, median",[5],0.0
same,"Reduced physical performance constant vs baseline, % of patients",[5],47.86%
same,"Reduced physical performance constant vs baseline, patients",[5],56
same,"Reduced physical performance improved vs baseline, % of patients",[5],47.01%
same,"Reduced physical performance improved vs baseline, patients",[5],55
same,"Reduced physical performance worse vs baseline, % of patients",[5],5.13%
same,"Reduced physical performance worse vs baseline, patients",[5],6
same,"Ability to perform normal activities, complaint scale 0-6, mean change",[6],−1.741
same,"Ability to perform normal activities, complaint scale 0-6, median change",[6],−2.000
same,"Ability to perform normal activities, complaint scale 0-6, mean change",[7],−2.587
same,"Ability to perform normal activities, complaint scale 0-6, median change",[7],−3.000
same,"Ability to perform normal activities, complaint scale 0-6, mean change",[8],−2.933
same,"Ability to perform normal activities, complaint scale 0-6, median change",[8],−3.0
same,"Ability to perform normal activities, complaint scale 0-6, mean change","patients with cough, n = 106",−2.255
same,"Ability to perform normal activities, complaint scale 0-6, median change","patients with cough, n = 106",−2.0
same,"Ability to perform normal activities, complaint scale 0-6, mean change","patients with fever, n = 21",−3.238
same,"Ability to perform normal activities, complaint scale 0-6, median change","patients with fever, n = 21",−4.0
same,"Ability to perform normal activities, complaint scale 0-6, mean change",[9],−2.419
same,"Ability to perform normal activities, complaint scale 0-6, median change",[9],−3.0
same,"Ability to perform normal activities constant vs baseline, % of patients",[10],11.11%
same,"Ability to perform normal activities constant vs baseline, patients",[10],3
same,"Ability to perform normal activities improved vs baseline, % of patients",[10],74.07%
same,"Ability to perform normal activities improved vs baseline, patients",[10],20
same,"Ability to perform normal activities worse vs baseline, % of patients",[10],14.81%
same,"Ability to perform normal activities worse vs baseline, patients",[10],4
same,"Ability to perform normal activities, complaint scale 0-6, mean",[10],1.296
same,"Ability to perform normal activities, complaint scale 0-6, median",[10],1.000
same,"Cough complaint scale 0-6, mean",[10],0.370
same,"Cough complaint scale 0-6, median",[10],0.000
same,"Ability to perform normal activities constant vs baseline, % of patients",[11],12.00%
same,"Ability to perform normal activities constant vs baseline, patients",[11],9
same,"Ability to perform normal activities improved vs baseline, % of patients",[11],82.67%
same,"Ability to perform normal activities improved vs baseline, patients",[11],62
same,"Ability to perform normal activities worse vs baseline, % of patients",[11],5.33%
same,"Ability to perform normal activities worse vs baseline, patients",[11],4
same,"Ability to perform normal activities, complaint scale 0-6, mean",[11],0.787
same,"Ability to perform normal activities, complaint scale 0-6, median",[11],0.000
same,"Presence of cough constant vs baseline, % of patients",[11],54.67%
same,"Presence of cough constant vs baseline, patients",[11],41
same,"Presence of cough improved vs baseline, % of patients",[11],42.67%
same,"Presence of cough improved vs baseline, patients",[11],32
same,"Presence of cough worse vs baseline, % of patients",[11],2.67%
same,"Presence of cough worse vs baseline, patients",[11],2
same,"Reduced physical performance constant vs baseline, % of patients",[11],38.67%
same,"Reduced physical performance constant vs baseline, patients",[11],29
same,"Reduced physical performance improved vs baseline, % of patients",[11],56.00%
same,"Reduced physical performance improved vs baseline, patients",[11],42
same,"Reduced physical performance worse vs baseline, % of patients",[11],5.33%
same,"Reduced physical performance worse vs baseline, patients",[11],4
same,"Ability to perform normal activities, complaint scale 0-6, mean",[12],1.067
same,"Ability to perform normal activities, complaint scale 0-6, median",[12],0.0
same,"Ability to perform normal activities, complaint scale 0-6, mean",[13],0.660
same,"Ability to perform normal activities, complaint scale 0-6, median",[13],0.0
same,"Ability to perform normal activities, complaint scale 0-6, mean",[14],0.762
same,"Ability to perform normal activities, complaint scale 0-6, median",[14],0.0
same,"Ability to perform normal activities constant vs baseline, % of patients",[15],11.97%
same,"Ability to perform normal activities constant vs baseline, patients",[15],14
same,"Ability to perform normal activities improved vs baseline, % of patients",[15],82.05%
same,"Ability to perform normal activities improved vs baseline, patients",[15],96
same,"Ability to perform normal activities worse vs baseline, % of patients",[15],5.98%
same,"Ability to perform normal activities worse vs baseline, patients",[15],7
same,"Ability to perform normal activities, complaint scale 0-6, mean",[15],0.769
same,"Ability to perform normal activities, complaint scale 0-6, median",[15],0.0
same,"Fatigue constant vs baseline, % of patients",[15],38.46%
same,"Fatigue constant vs baseline, patients",[15],45
same,"Fatigue improved vs baseline, % of patients",[15],59.83%
same,"Fatigue improved vs baseline, patients",[15],70
same,"Fatigue worse vs baseline, % of patients",[15],1.71%
same,"Fatigue worse vs baseline, patients",[15],2
same,"Reduced physical performance constant vs baseline, % of patients",[15],40.17%
same,"Reduced physical performance constant vs baseline, patients",[15],47
same,"Reduced physical performance improved vs baseline, % of patients",[15],54.70%
same,"Reduced physical performance improved vs baseline, patients",[15],64
same,"Reduced physical performance worse vs baseline, % of patients",[15],5.13%
same,"Reduced physical performance worse vs baseline, patients",[15],6
